Publication PMC9019904, “AD Informer Set: Chemical tools to facilitate Alzheimer's disease drug discovery” (Alzheimer's & Dementia : Translational Research & Clinical …, 2022)
Where a SMILES comes first, the peptide text is derived from it. [ ]: non-standard residue; d: D form. The star is where a group is joined. ξ: configuration not given here. ξF = NC(Cc1ccccc1)C(=O)O; Cbz = O=C(OCc1ccccc1)*

Legend:
[1] = test system: HMC3 (human microglia) cell line; experiment: pHrodo-myelin phagocytosis/cell viability high content imaging assay: phagocytosis signal; type: cell-based
In short: (§1)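 Phagocytosis and cell viability were measured together by high content imaging about 22 hours after pHrodo-myelin addition. Three measurements were extracted from the images. Intensity increase and decrease were taken as early and later apoptosis, respectively.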

[2] = test system: BV2 (mouse microglia) cell line; experiment: as above; type: cell-based
In short: as §1

[3] = test system: HMC3 (human microglia) cell line; experiment: pHrodo-myelin phagocytosis/cell viability high content imaging assay: viability (cell count, nuclear area, nuclear intensity); details: 48 hours treatment
In short: (§2)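 Cells adhered overnight, then were exposed to compounds at a single 10 μM for 48 h in total, with pHrodo-myelin added for the last 20 h. High-content imaging gave cell count per well as the main viability measure plus mean nuclear intensity per cell. Duplicate wells were averaged and expressed as % of untreated control.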

[4] = test system: BV2 (mouse microglia) cell line; experiment: as above; details: 48 hours treatment
In short: as §2

[5] = HMC3 cells, 10 uM compound, 48 hours treatment, pHrodo-myelin final 20 hours
[6] = BV2 cells, 10 uM compound, 48 hours treatment, pHrodo-myelin final 20 hours
[7] = HMC3, compound 10 uM, pHrodo-myelin
[8] = BV2, compound 10 uM, pHrodo-myelin

Row | SMILES | 4. Phagocytosis (% control) [1, 5] [% control] | 4. Phagocytosis (% control) [2, 6] [% control] | 1. Cell count (% control) ([3]; HMC3 cells, 10 uM compound) | 2. Nuclear Area (% Control) ([3]; HMC3 cells, 10 uM compound) | 3. Nuclear DNA Intensity (% control) ([3]; HMC3 cells, 10 uM compound) | 1. Cell count (% control) ([4]; BV2 cells, 10 uM compound) | 2. Nuclear Area (% Control) ([4]; BV2 cells, 10 uM compound) | 3. Nuclear DNA Intensity (% control) ([4]; BV2 cells, 10 uM compound) | 4. Phagocytosis (% control) [1, 7] [% control] | 4. Phagocytosis (% control) [2, 8] [% control] | 1. Cell count (% control) ([3]; HMC3, compound 10 uM) | 2. Nuclear Area (% Control) ([3]; HMC3, compound 10 uM) | 3. Nuclear DNA Intensity (% control) ([3]; HMC3, compound 10 uM) | 1. Cell count (% control) ([4]; BV2, compound 10 uM) | 2. Nuclear Area (% Control) ([4]; BV2, compound 10 uM) | 3. Nuclear DNA Intensity (% control) ([4]; BV2, compound 10 uM)
1 | C[C@]12C=CC(=O)C=C1CC[C@@H]1[C@@H]2[C@@H](O)C[C@@]2(C)[C@H]1CC[C@]2(O)C(=O)CO [UNC10240227A] | 79.4 | 126.6 | 161.9 | 102.8 | 82.5 | 107.8 | 102.9 | 105.7 | – | – | – | – | – | – | – | –
2 | CCc1ccc(CCOc2ccc(CC3SC(=O)NC3=O)cc2)nc1.Cl (centres unmarked) [UNC10240376D] | 81.1 | 139.3 | 140.5 | 99.5 | 91.5 | 113.0 | 109.1 | 109.5 | – | – | – | – | – | – | – | –
3 | C[C@@H]1O[C@@H](O[C@H]2[C@H](Oc3cc(O)c4c(c3)O[C@H](c3ccc(O)cc3)CC4=O)O[C@H](CO)[C@@H](O)[C@@H]2O)[C@H](O)[C@H](O)[C@H]1O [UNC10242153A] | 65.7 | 167.6 | 139.8 | 102.9 | 93.8 | 113.5 | 104.9 | 98.8 | – | – | – | – | – | – | – | –
4 | Cc1cc(Nc2ncc(Cl)c(Nc3ccccc3S(=O)(=O)C(C)C)n2)c(OC(C)C)cc1C1CCNCC1 [UNC10244729A] | 0.00248 | 0.00122 | 28.7 | 60.3 | 155.5 | 19.2 | 92.5 | 49.1 | – | – | – | – | – | – | – | –
5 | COc1cc(N2CCC(N3CCN(C)CC3)CC2)ccc1Nc1ncc(Cl)c(Nc2ccccc2P(C)(C)=O)n1 [UNC10244797A] | – | – | – | – | – | – | – | – | 99.4 | 236.8 | 103.9 | 120.2 | 97.2 | 44.4 | 109.2 | 111.1
6 | C[C@H]1Oc2cc(cnc2N)-c2c(nn(C)c2C#N)CN(C)C(=O)c2ccc(F)cc21 [UNC10244898A] | 37.8 | 200.3 | 127.2 | 110.3 | 89.2 | 117.2 | 102.7 | 110.1 | – | – | – | – | – | – | – | –
7 | CCc1cc2c(cc1N1CCC(N3CCOCC3)CC1)C(C)(C)c1[nH]c3cc(C#N)ccc3c1C2=O [UNC10245077A] | – | – | – | – | – | – | – | – | 22.4 | 169.6 | 0.0 | 0.0 | 0.0 | 128.2 | 94.3 | 130.0
8 | Cc1cccc(-c2nn3c(c2-c2ccnc4ccc(C(N)=O)cc24)CCC3)n1 [UNC10245080A] | 85.1 | 174.0 | 126.0 | 104.6 | 85.7 | 99.1 | 108.1 | 97.4 | – | – | – | – | – | – | – | –
9 | CCS(=O)(=O)N1CCN(c2ccc(Nc3ncc(C(N)=O)c(NC4CC4)n3)cc2)CC1 [UNC10245084A] | – | – | – | – | – | – | – | – | 110.4 | 2.3 | 54.5 | 136.2 | 128.1 | 6.9 | 115.7 | 50.0
10 | CC(C)(C)c1cnc(CSc2cnc(NC(=O)C3CCNCC3)s2)o1 [UNC10302585A] | 156.3 | 98.5 | 57.0 | 118.9 | 102.8 | 5.4 | 123.4 | 85.3 | – | – | – | – | – | – | – | –
11 | CCCC[C@@H](C=O)NC(=O)[C@H](CC(C)C)NC(=O)OCc1ccccc1 [UNC10302674A] | 69.0 | 195.1 | 146.0 | 103.5 | 93.8 | 102.6 | 106.4 | 106.3 | – | – | – | – | – | – | – | –
12 | CC(C)[C@H](NC(=O)OCc1ccccc1)C(=O)NC(C=O)Cc1ccccc1 (stereo partly drawn) [UNC10302675A] (Cbz-Val-[ξF]-aldehyde) | 106.9 | 144.5 | 109.7 | 102.5 | 106.2 | 117.2 | 102.4 | 114.8 | – | – | – | – | – | – | – | –
13 | O=C(NC1CC1)C(=O)C(Cc1ccccc1)NC(=O)[C@H]1CCC(=O)N1Cc1ccccc1 (some centres unmarked) [UNC10302676A] | 95.9 | 108.4 | 123.8 | 98.7 | 104.1 | 127.5 | 105.0 | 102.8 | – | – | – | – | – | – | – | –
14 | COCCOCCOC(=O)N[C@@H](CC(C)C)C(=O)N[C@@H](Cc1ccccc1)C(=O)C(=O)NC1CC1 [UNC10302677A] | 70.4 | 132.9 | 142.6 | 102.2 | 91.6 | 132.7 | 105.3 | 103.4 | – | – | – | – | – | – | – | –
15 | c1cn2cc(-c3ccc4cn[nH]c4c3)nc(Nc3ccc(N4CCOCC4)cc3)c2n1 [UNC10302678A] | 43.6 | 0.6 | 74.7 | 98.9 | 212.8 | 22.1 | 102.9 | 164.6 | – | – | – | – | – | – | – | –
16 | CNc1nc(C)nc(N[C@H]2CCC[C@@H](C(=O)NCc3ccc(C#N)cc3C(F)(F)F)C2)n1 [UNC10302679A] | 69.3 | 135.7 | 141.0 | 100.7 | 92.7 | 107.8 | 106.3 | 102.1 | – | – | – | – | – | – | – | –
17 | O=c1oc2ccccc2cc1-c1cn2cc(Cc3ccc(F)cc3)sc2n1 [UNC10302680A] | 72.6 | 114.2 | 107.8 | 96.3 | 103.3 | 59.2 | 99.6 | 132.0 | – | – | – | – | – | – | – | –
18 | CCC(=O)N1CCC(NC(=O)Nc2ccc(OC(F)(F)F)cc2)CC1 [UNC10302681A] | 96.8 | 102.7 | 147.2 | 103.6 | 94.9 | 105.6 | 99.0 | 108.5 | – | – | – | – | – | – | – | –
19 | Cl.NC(=O)c1cnc(N[C@@H]2CCCC[C@@H]2N)nc1Nc1cccc(-n2nccn2)c1 [UNC10302682A] | 0.13 | 0.00121 | 54.1 | 63.7 | 181.4 | 28.1 | 80.4 | 42.1 | – | – | – | – | – | – | – | –
